Measurements as given in patent US11578110B2, “Compounds for inducing tissue formation and uses thereof” (HISTIDE AG, priority 2015, dated 2023).
No end group written: not given here.

Tests used:
[1] = system: Human Hematopoietic Stem Cells; experiment: CD-34+ stemness marker expression (immunostaining, ImageJ quantification); type: cell-based; conditions: peptides grafted on a PET surface; 48 hours
Hair Follicle Stem Cells = experiment: Activation of hair follicle stem cells on modified hydrogels (Sox2, BMP-6 release); type: cell-based, Mouse; conditions: hydrogel 73 kPa covalently modified
hMSCs [2] = experiment: STRO-1 stemness marker expression in hMSCs (immunostaining, ImageJ quantification); type: cell-based, Human
Experimental: The cells were first fixed for 20 min with 4% paraformaldehyde/PBS at 4° C. After fixation, the cells were permeabilized in PBS containing 1% Triton X-100 for 15 min. Runx2, Osterix, Stro-1, Vinculin, Phalloidin, Osteopontin, Sox2, Sox9 antibodies were visualized by treating the cells with 1% (v/v) specific monoclonal antibodies for 1 hour at 37° C. Then the samples were incubated with Alexa fluor® 568 or 647 (F(ab′)2 fragment of IgG(H+L)) during 30 min at room temperature. The cell nuclei were counterstained in 20 ng/mL DAPI for 10 min at room temperature.
For this type of quantification the freeware image analysis ImageJ® software was used. The raw image was first converted to an 8-bit file, and then the unsharp mask feature was used (settings 1:0.2) to remove the image background (rolling ball radius 10). After smoothing, the resulting image, which appears similar to the original photomicrograph but with minimal background, was then converted to a binary image by setting a threshold. Threshold values were determined empirically by selecting a setting, which gave the most accurate binary image for a subset of randomly selected photomicrographs. The cell area was determined by manual delineation on raw fluorescent images. Total contact area and mean contact area per cell were calculated by “analyse particles” in ImageJ®. A minimum of 30 cells per condition were analyzed. Stro-1, CD-34+, and CD-105 expressions were determined using this procedure.
hMSCs were cultured on conventional cell culture plastic plates with or without the presence in the cell culture media of different GFR-binding compounds as defined hereins (SEQ ID NO: 50 to 104) in solution. […] This was probed by Stro-1 immunostaining after cell fixation as described in the Methods section. The quantification of Stro-1 positive contact numbers and areas was performed as described in the Methods section. A minimum of 30 cells per condition were analyzed.
RMSD values are always calculated for a GFR-binding peptide sequence exempt from any bioactive-carrier-affinity-containing group as defined herein (e.g. cysteine, WWFWG, GTPGP, etc. . . . ). When needed i.e. when attachment to a bioactive carrier is contemplated, the bioactive-carrier-affinity-containing group is then present in the GFR-binding compound when it is biologically tested. Using the method detailed in the description, the RMSD of 57 previously reported peptide sequences have been determined (Table 6) and correlated with the expression of STRO-1 after grafted on a PET surface via a procedure as already described above. […] One should note that it is commonly admitted that the expression of STRO-1 in a cell is indicative of a cell that is in a substantially non-differentiated state and the decrease of its expression of at least about 20% is indicative of a cell that has started a processes of differentiation but which may not result in the differentiation of the cell. A decrease of more than 50% would be indicative of the presence of a significant shift towards a differentiated state. A decrease of more than 70% would be indicative of the presence of a very important shift towards a differentiated state. A sustained decrease (e.g. for at least 96 h) of more than 50% or 70% would be indicative of the presence of an even more important shift towards a differentiated state.
Likewise, using the method detailed in the description, the RMSD of 87 GFR-binding peptide sequence representatives of the invention have been determined (Table 7) and correlated with the expression of STRO-1 after grafted on a PET surface via a procedure as already described above. SEQ ID NO: 1 to 49 were tested in combination with a bioactive carrier as defined above in the Examples Section (i.e. titanium, ceramics, PEEK, hydrogel, etc. . . . ), whereas SEQ ID NO: 1143 to 1180 were tested in solution.

hMSCs [3] = experiment: Chondrocyte differentiation of hMSCs on modified hydrogels (Sox9, Aggrecan); type: cell-based, Human; conditions: 96 hours, hydrogel 14 kPa covalently modified; for Aggrecan gene expression: semi-quantitative RT-PCR
Experimental: Total RNA was extracted by using the RNeasy total RNA kit (Qiagen®) according to the manufacturer's instructions. Purified total RNA was used as a template in order to make cDNA by a reverse transcription reaction (Gibco Brl®) with random primers (Invitrogen®). The cDNA was then used as a template for a real-time PCR amplification in the presence of SYBR green reagents (Bio-Rad®) by using a thermocycler (iCycler, Biorad®). Data were analyzed with the iCycler IQ™® software and compared by the ΔΔCt method. Briefly, the mean Ct value of the target gene was normalized to its averaged Ct values of the housekeeping gene (HPRT) to give a ΔCt value, which was then normalized to a control sample to obtain a ΔΔCt value.
Total RNA was extracted by using the RNeasy Mini Kit (Qiagen) and […] RNA was used for cDNA synthesis with AMV kit (Invitrogen®) according to the manufacturer' instructions. Semi-quantitative reverse transcriptase-polymerase chain reaction (RT-PCR) was performed with Taq DNA Polymerase (Invitrogen®) in a thermocycler (Bio-Rad®). The cDNA input was normalized to […] (HPRT). The PCR products were analyzed on 2% agarose gels. For the Aggrecan gene, the PCR bands were densitometrically quantified by using the BioCapt software (Vilber). Values were normalized to HPRT, and results were reported as relative gene expression.
For that a semi-quantitative RT-PCR was performed as described in the Methods section for the Aggrecan gene and a Quantitative Real Time PCR for Sox9.

[4] = SEQ ID NO: 1 to 49 tested in combination with a bioactive carrier (titanium, ceramics, PEEK, hydrogel, etc.)
[5] = SEQ ID NO: 1143 to 1180 tested in solution

Sequence	CD34+ Expression [1] [%]	STRO-1 expression (hMSCs [2]; grafted on a PET surface) [%]	other results
AASKASSAPTKMSPINILYF (GFR-binding peptide) [SEQ ID NO: 1079]	30	–	–
AASKASSSRVEESATSTLYY (GFR-binding peptide) [SEQ ID NO: 1075]	28	–	–
AASKASSVPAKMRPVQTRKI (GFR-binding peptide) [SEQ ID NO: 1085]	19	–	–
AASKASSVPEKLSSLSILFF [SEQ ID NO: 41]	–	–	BMP-6 release in the cell culture medium (Hair Follicle Stem Cells): decrease; Sox2 protein expression (Hair Follicle Stem Cells): increase; STRO-1 expression (hMSCs [2]; [4]): 28%
AASKASSVPQQLSSLSTLFF (GFR-binding peptide) [SEQ ID NO: 1073]	29	–	–
AASKASSVPTKMEPISTLYL (GFR-binding peptide) [SEQ ID NO: 1078]	30	–	–
AVPKASSAPTKLEPLPIVYY [SEQ ID NO: 36]	–	–	expression of the Sox9 protein (hMSCs [3]): observed; Aggrecan gene expression (hMSCs [3]): increased expression; STRO-1 expression (hMSCs [2]; [4]): 21%
KIPKASSTPTGQSNITMQIM (GFR-binding peptide) [SEQ ID NO: 1082]	18	–	–
KIPKASSTPTRLRSVKMAKV (GFR-binding peptide) [SEQ ID NO: 1083]	17	–	–
KIPKASSVPEELEPLPTVYY (GFR-binding peptide) [SEQ ID NO: 1081]	33	–	–
KIPKASSVPTKMRPVQMRKI (GFR-binding peptide) [SEQ ID NO: 1084]	18	–	–
KIPKASSVSQELEPLTILYY [SEQ ID NO: 37]	–	–	expression of the Sox9 protein (hMSCs [3]): observed; Aggrecan gene expression (hMSCs [3]): increased expression; STRO-1 expression (hMSCs [2]; [4]): 17%
RVPSTSSAPVEESPISTLYI (GFR-binding peptide) [SEQ ID NO: 1076]	27	–	–
RVPSTSSTPTKMKPLSILYV (GFR-binding peptide) [SEQ ID NO: 1080]	31	–	–
RVPSTSSTQVRLSPISMLFI (GFR-binding peptide) [SEQ ID NO: 1077]	24	–	–
RVPSTSSVPQQLNAISTLYF (GFR-binding peptide) [SEQ ID NO: 1074]	32	–	–
RVPSTSSVPTDLSSLSILFF (GFR-binding peptide) [SEQ ID NO: 1072]	26	–	–
RVPSTSSVPTELSAISVLYL (GFR-binding peptide) [SEQ ID NO: 1071]	29	–	–
SSVPAVCSATSATGPYSTATNTVVVFDVYATTVY (SSVPAVCSATSATGPYSTATNTVWFDVYATTVY; Previously reported sequence) [SEQ ID NO: 1117, reference compound]	–	91	–
STPPTSSAPVGQSPISMLYI (GFR-binding peptide) [SEQ ID NO: 1162]	–	–	STRO-1 expression (hMSCs [2]; [5]): 19%
STPPTSSSRVQLSAISMLYL (GFR-binding peptide) [SEQ ID NO: 1154]	–	–	STRO-1 expression (hMSCs [2]; [5]): 15%
STPPTSSTPTKMSNITTQIM (GFR-binding peptide) [SEQ ID NO: 1175]	–	–	STRO-1 expression (hMSCs [2]; [5]): 27%

Sequence	CD34+ Expression [1] [%]	STRO-1 expression (hMSCs [2]; grafted on a PET surface) [%]	other results
STPPTSSVPTELSPISTLYK (GFR-binding peptide) [SEQ ID NO: 1147]	–	–	STRO-1 expression (hMSCs [2]; [5]): 21%
STPPTSSVPTEVSPINTLYF (GFR-binding peptide) [SEQ ID NO: 1166]	–	–	STRO-1 expression (hMSCs [2]; [5]): 19%
STPPTSSVPTRLSAISMLYL [SEQ ID NO: 3]	–	–	STRO-1 expression (hMSCs [2]; [4]): 19%
STPPTSSVSQKMKPLSILYV (GFR-binding peptide) [SEQ ID NO: 1170]	–	–	STRO-1 expression (hMSCs [2]; [5]): 25%
SVPAVCSATSATGPYSSVTVTSWPSIVATGGTT (Previously reported sequence) [SEQ ID NO: 1114, reference compound]	–	92	–
SVPAVCSATSATGPYSTATNTVVVPSIVATGGTT [SEQ ID NO: 1115, reference compound]	–	92	–
TCCVPELSAISMLYLDEN (Previously reported sequence) [SEQ ID NO: 1131, reference compound]	–	84	–
TKPLSSLLFPNWNTTTTPTPPRP (Previously reported sequence) [SEQ ID NO: 1101, reference compound]	–	91	–
TLXPIVSSXNPSPISFRXIKILLHDLEVVPFPKSRVR (not fully specified; X: residue not identified in the source; ends and bridges not checked) [SEQ ID NO: 1107, reference compound]	–	84	–
TPTVVSATSL (Previously reported sequence) [SEQ ID NO: 1111, reference compound]	–	98	–
TPTYSRPVQKAELTR (Previously reported sequence) [SEQ ID NO: 1091, reference compound]	–	97	–
TVPKPSSAPTQLSAISMLYL [SEQ ID NO: 18]	–	–	STRO-1 expression (hMSCs [2]; [4]): 23%
VEQLSNMVVK (Previously reported sequence) [SEQ ID NO: 1086, reference compound]	–	98	–
VGAAWWLREQGSPINTLAVPA (Previously reported sequence) [SEQ ID NO: 1103, reference compound]	–	88	–
VHLLKPHAVPKACCAPTKLSATSVLYYDSSNNVILRKHRNMVVRACGCH (Previously reported sequence) [SEQ ID NO: 1118, reference compound]	–	88	–
VPAEESPISILYI (CVPAEESPISILYI; GFR-binding peptide) [SEQ ID NO: 48]	–	–	STRO-1 expression (hMSCs [2]; [4]): 21%
VPAGQSPISILYI (CVPAGQSPISILYI; GFR-binding peptide) [SEQ ID NO: 46]	–	–	STRO-1 expression (hMSCs [2]; [4]): 20%
VPTELSPISLLYLDEFEKVTLKNYQDMVVDG (Previously reported sequence) [SEQ ID NO: 1110, reference compound]	–	87	–
VPTKLEPISVLYKDDMGVPTLKYHYEGMAVSECGCR (Previously reported sequence) [SEQ ID NO: 1105, reference compound]	–	81	–
VPTKLSPISILYKDDMGVPTYKFKYEGMSVAECGCR (Previously reported sequence) [SEQ ID NO: 1109, reference compound]	–	82	–
VPTKLSPISILYLDKGVVTYKFKYEGMSVAECGCR (Previously reported sequence) [SEQ ID NO: 1108, reference compound]	–	80	–
